Data reported in patent US10233180B2, “Substituted nitrogen-containing heterocyclic derivatives, pharmaceutical compositions comprising the same and applications of antitumor thereof” (ZHEJIANG UNIVERSITY, priority 2014, dated 2019).

Tests used:
Akt1 = target: T1, Akt1 (Homo sapiens, UniProt P31749); test: AKT1/PKBα KinEASE FP Fluorescein Green Assay (fluorescence polarization kinase kit); type: biochemical; settings: 1 h reaction, read-out: Inhibitory activities against Akt1 (IC50)
T1 construct: purchased 32-021
T1 sequence (P31749 whole entry): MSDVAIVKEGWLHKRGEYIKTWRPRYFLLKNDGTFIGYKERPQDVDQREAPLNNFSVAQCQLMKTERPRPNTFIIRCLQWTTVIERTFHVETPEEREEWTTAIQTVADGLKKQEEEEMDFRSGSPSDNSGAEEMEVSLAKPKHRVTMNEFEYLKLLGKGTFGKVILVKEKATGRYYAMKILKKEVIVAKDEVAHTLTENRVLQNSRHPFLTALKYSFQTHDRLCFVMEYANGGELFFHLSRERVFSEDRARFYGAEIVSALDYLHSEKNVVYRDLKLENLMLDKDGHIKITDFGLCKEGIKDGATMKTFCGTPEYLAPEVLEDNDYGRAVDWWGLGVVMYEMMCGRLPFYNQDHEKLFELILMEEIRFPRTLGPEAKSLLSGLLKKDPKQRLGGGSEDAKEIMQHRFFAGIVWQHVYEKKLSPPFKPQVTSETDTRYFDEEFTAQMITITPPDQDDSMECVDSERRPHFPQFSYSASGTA
Experimental: Second, method for determining the inhibitory activities of substituted nitrogen-containing heterocyclic derivatives in the present invention against Akt1 enzyme:
The inhibitory activities of compounds against AKT1/PKBα are determined by using AKT1/PKBα KinEASE™ FP Fluorescein Green Assay (Green fluorescence detection system of Kinase).
Principle adopted by the fluorescence polarization detection of protein kinase B is a competitive reaction: the phosphorylated tracers labeled with fluorescence will compete with unlabeled phosphorylated products produced by reacting with protein kinase B to combine anti-serine antibodies. […] However, in the reaction mixture containing phosphorylated products, fewer tracers will combine with antibodies (fluorescent tracers are replaced from the antibodies), and signals sent our occur depolarizing. Therefore, the change of polarization is directly related to the activity of protein kinase B in the reaction.
Each of 0.25 μl of compounds with a concentration of 50 μM and the positive control are added to a 384-well plate at room temperature, and each sample is provided with three parallel wells, and then 10 μl of STK Substrate 3 Working Solution, 5 μl of AKT1/PKBα Working Solution, 10 μl of ATP Working Solution are added to each sample respectively, the mixtures are slightly vibrated and shaked for a few minutes. Reaction is carried out just after the adding 10 μl of ATP Working Solution, from this time, reacting for 1 h. After 1 h, 5 μl of STK Stop Mix and 5 μl of STK Antibody Mix are added to each sample respectively to stop the reaction. The samples are maintained for 4 h at room temperature after adding is completed, the polarization values of samples are determined by fluorescence polarization of Microplate Reader (Detection of the signals is valid within 24 h), the inhibitory rate of compounds against the enzyme is calculated by polarization value, and thereby IC50 is calculated.
Experiment is set up four control groups at the same time, which are Buffer Control Wells, Tracer Control Wells, No Enzyme Wells and blank control of dimethyl sulfoxide, respectively. Thus obtained data are used to calculate the inhibitory rate (the preparation methods of above various solution required for determining the activities of compounds against enzyme refer to the specification of the kit of AKT1/PKBα KinEASE™ FP Fluorescein Green Assay Catalog #32-021).

[1] = system: Human ovarian cancer cell strain OVCAR-8; test: MTT assay, inhibition of tumor cell growth in vitro, 72 h; type: cell-based; settings: Homo sapiens, OVCAR-8, MTT, read-out: Antitumor proliferative activities of tumor cell (IC50, μM) OVCAR-8
Experimental: (§1) First, inhibitory activity on tumor proliferation in vitro is determined and the structure activity relationship is preliminarily studied, in which different solid tumor cell strains are selected for determining the antitumor activities in vitro of the synthesized compounds.
(§2) Cell strains: Human ovarian cancer cell strain (OVCAR8), colon adenocarcinoma cell strain (HCT-116)
Medium: OVCAR8: RPMI 1640+Fetal Bovine Serum
(§3) Preparing method of medicines: Dissolving the medicine in DMSO to make a 50 mM stock solution, and diluting it according to a certain ratio to obtain 5 different concentrations.
(§4) Two selected tumor cells OVCAR8 and HCT-116 are incubated at 37° C. in a 5% CO2 incubator, which are subcultured when cells grow up to a density of 70˜90% (adherent cells are subcultured after digesting by Duck's EDTA) for later experiments.
(§5) Compounds are dissolved and diluted by dimethyl sulfoxide (DMSO), and tumor cells OVCAR8 and HCT-116 are seeded in a 96-well plate at a density of 4000 cells/200 μl/well, 1 μl of the compounds are added to each well with the final concentration of 50 μM, 10 μM, 2 μM, 0.4 μM and 0.08 μM, which is incubated for 72 h at 37° C. in a 5% CO2 incubator with DMSO (1%) as blank control.
(§6) The calculating formula of cell inhibitory rate is: cell inhibitory rate %=(the OD value of the control group−the OD value of the medication group)/the OD value of the control group×100%, the half maximal inhibitory concentration (IC50) is obtained by Bliss method.

[2] = system: human colon cancer cell strain HCT-116; test: as above; type: cell-based; settings: Homo sapiens, HCT-116, MTT, read-out: Antitumor proliferative activities of tumor cell (IC50, μM) HCT-116 (converted)
Experimental: as §1, §2
HCT-116: RPMI 1640+Fetal Bovine Serum
as §3, §4, §5, §6

SMILES	IC50 (Akt1)	IC50 [1]	IC50 [2]
Cn1ncc(Br)c1-c1coc(C(=O)N[C@H]2CNCC[C@@H]2c2ccc(F)c(F)c2)c1 (racemic) [Compound 28, 4-(4-bromo-1-methyl-1H-pyrazol-5-yl)-N-(3,4-trans-4-(3,4-difluorophenyl)piperidin-3-yl)furan-2-formamide]	0.062 µM	3.38 µM	11.8 µM
Cn1ncc(Cl)c1-c1cc(C(=O)N[C@H]2CNCC[C@@H]2c2ccccc2)oc1Cl (racemic) [Compound 29, 5-chloro-4-(4-chloro-1-methyl-1H-pyrazol-5-yl)-N-(3,4-trans-4-phenylpiperidin-3-yl)furan-2-formamide]	0.062 µM	1.12 µM	8.67 µM
Cn1ncc(Cl)c1-c1cc(C(=O)N[C@H]2CNCC[C@@H]2c2ccc(C(F)(F)F)cc2)oc1Cl (racemic) [Compound 30, 5-chloro-4-(4-chloro-1-methyl-1H-pyrazol-5-yl)-N-(3,4-trans-4-(4-trifluoromethylphenyl)piperidin-3-yl)furan-2-formamide]	0.092 µM	1.01 µM	21.6 µM
Cn1ncc(Cl)c1-c1cc(C(=O)N[C@H]2CNCC[C@@H]2c2ccc(F)c(F)c2)oc1Cl (racemic) [Compound 31, 5-chloro-4-(4-chloro-1-methyl-1H-pyrazol-5-yl)-N-(3,4-trans-4-(3,4-difluorophenyl)piperidin-3-yl)furan-2-formamide]	0.018 µM	4.54 µM	1.85 µM
Cn1nccc1-c1csc(C(=O)N[C@H]2CNCC[C@@H]2c2ccc(Cl)cc2)c1 (racemic) [Compound 32, 4-(1-methyl-1H-pyrazol-5-yl)-N-(3,4-trans-4-(4-chlorphenyl)piperidin-3-yl) thiophene-2-formamide]	0.123 µM	1.47 µM	18.1 µM
Cn1ncc(Cl)c1-c1csc(C(=O)N[C@H]2CNCC[C@@H]2c2ccc(Cl)cc2)c1 (racemic) [Compound 35, 4-(4-chloro-1-methyl-1H-pyrazol-5-yl)-N-(3,4-trans-4-(4-chlorphenyl)piperidin-3-yl)thiophene-2-formamide]	0.12 µM	4.61 µM	11.5 µM
Cn1ncc(Cl)c1-c1csc(C(=O)N[C@H]2CNCC[C@@H]2c2ccc(F)c(F)c2)c1 (racemic) [Compound 36, 4-(4-chloro-1-methyl-1H-pyrazol-5-yl)-N-(3,4-trans-4-(3,4-difluorophenyl)piperidin-3-yl)thiophene-2-formamide]	0.105 µM	3.38 µM	3.28 µM
Cn1ncc(Br)c1-c1csc(C(=O)N[C@H]2CNCC[C@@H]2c2ccc(Cl)cc2)c1 (racemic) [Compound 37, 4-(4-bromo-1-methyl-1H-pyrazol-5-yl)-N-(3,4-trans-4-(4-chlorphenyl)piperidin-3-yl)thiophene-2-formamide]	0.052 µM	5.36 µM	2.24 µM
Cn1ncc(Br)c1-c1csc(C(=O)N[C@H]2CNCC[C@@H]2c2ccc(F)c(F)c2)c1 (racemic) [Compound 38, 4-(4-bromo-1-methyl-1H-pyrazol-5-yl)-N-(3,4-trans-4-(3,4-difluorophenyl)piperidin-3-yl)thiophene-2-formamide]	0.409 µM	4.69 µM	1.94 µM
Cc1cnn(C)c1-c1cnc(C(=O)N[C@H]2CNCC[C@@H]2c2ccc(F)c(F)c2)cc1F (racemic) [Compound 46, 4-fluoro-5-(1,4-dimethyl-1H-pyrazol-5-yl)-N-(3,4-trans-4-(3,4-difluorophenyl)piperidin-3-yl)pyridinyl-2-formamide]	0.348 µM	7.94 µM	23.8 µM
CCc1cnn(C)c1-c1cc(C(=O)N[C@H]2CNCC[C@@H]2c2ccc(Cl)cc2)nc(C)n1 (racemic) [Compound 47, 2-methyl-6-(1-methyl-4-ethyl-1H-pyrazol-5-yl)-N-(3,4-trans-4-(4-chlorophenyl)piperidin-3-yl)pyrimidine-4-formamide]	0.216 µM	5.57 µM	3.11 µM
Cc1nc(C(=O)N[C@H]2CNCC[C@@H]2c2ccc(F)c(F)c2)ncc1-c1c(Cl)cnn1C (racemic) [Compound 52, 4-methyl-5-(4-chloro-1-methyl-1H-pyrazol-5-yl)-N-(3,4-trans-4-(3,4-difluorophenyl)piperidin-3-yl)pyrimidine-2-formamide]	0.072 µM	1.06 µM	2.05 µM
CCc1cnn(C)c1-c1cccc(C(=O)N[C@H]2CNCC[C@@H]2c2ccc(Cl)cc2)c1Cl (racemic) [Compound 53, 2-chloro-3-(4-ethyl-1-methyl-1H-pyrazol-5-yl)-N-(3,4-trans-4-(4-chlorophenyl)piperidin-3-yl)phenyl formamide]	0.029 µM	4.69 µM	2.66 µM
CCCc1cc(C(=O)N[C@H]2CNCC[C@@H]2c2cc(OC)cc(OC)c2)ccc1-c1c(Br)cnn1C (racemic) [Compound 54, 3-n-propyl-4-(4-bromo-1-methyl-1H-pyrazol-5-yl)-N-(3,4-trans-4-(3,5-dimethoxyphenyl)piperidin-3-yl)phenyl formamide]	0.678 µM	13.3 µM	3.14 µM
Cc1cccc([C@H]2CCNC[C@@H]2NC(=O)c2cc(C)c(-c3c(Br)cnn3C)cc2C)c1 (racemic) [Compound 57, 2,5-dimethyl-4-(4-bromo-1-methyl-1H-pyrazol-5-yl)-N-(3,4-trans-4-(3-methylphenyl)piperidin-3-yl)phenyl formamide]	0.082 µM	12.9 µM	2.5 µM
Cc1nc(C(=O)N[C@H]2CNCC[C@@H]2c2ccncc2)ccc1-c1c(Br)cnn1C (racemic) [Compound 58, 6-methyl-5-(4-bromo-1-methyl-1H-pyrazol-5-yl)-N-(3,4-trans-4-(pyridinyl-4-yl)piperidin-3-yl)pyridinyl-2-formamide]	0.052 µM	3.68 µM	15.8 µM
Cc1cnn(C)c1-c1cnc(C(=O)N[C@H]2CNCC[C@@H]2c2ccc[nH]2)nc1C (racemic) [Compound 60, 4-methyl-5-(1,4-dimethyl-1-methyl-1H-pyrazol-5-yl)-N-(3,4-trans-4-(pyrrole-2-yl)piperidins-3-yl)pyrimidine-2-formamide]	0.972 µM	6.01 µM	2.27 µM
Cn1ncc(Cl)c1-c1coc(C(=O)N[C@H]2CNC[C@@H]2c2ccc(F)c(F)c2)c1 (racemic) [Compound 66]	0.345 µM	3.48 µM	3.22 µM
Cn1ncc(Br)c1-c1coc(C(=O)N[C@H]2CNC[C@@H]2c2ccc(C(F)(F)F)cc2)c1 (racemic) [Compound 67, 4-(4-bromo-1-methyl-1H-pyrazol-5-yl)-N-(3,4-trans-4-(4-trifluoromethylphenyl)pyrrolidin-3-yl)furan-2-formamide]	0.272 µM	10.6 µM	20.4 µM
Cn1ncc(Br)c1-c1coc(C(=O)N[C@H]2CNC[C@@H]2c2ccc(F)c(F)c2)c1 (racemic) [Compound 68, 4-(4-bromo-1-methyl-1H-pyrazol-5-yl)-N-(3,4-trans-4-(3,4-difluorophenyl)pyrrolidin-3-yl)furan-2-formamide]	0.679 µM	4.19 µM	2.84 µM
